Test results as given in ChEMBL document CHEMBL5518203, “Rational Design of Benzobisheterocycle Metallo-β-Lactamase Inhibitors: A Tricyclic Scaffold Enhances Potency against Target Enzymes” (J Med Chem, 2024).
≈ marks a conversion by molar mass, not a printed value. Calls of active or inactive are those of the source. The calls are words filed in the database; no cut-off is given here.

How the values were obtained:
[1] = target: Metallo-beta-lactamase type 2 (Bacteria, UniProt C7C422); assay: Inhibition of his6-tagged NDM-1 (unknown origin) expressed in Escherichia coli BL21-DE3 incubated for 16 hrs
[2] = Inhibition of his6-tagged L1 (unknown origin) expressed in Escherichia coli BL21-DE3 incubated for 16 hrs; design: species or system Enzyme inhibition
[3] = Inhibition of his6-tagged IMP-1 (unknown origin) expressed in Escherichia coli BL21-DE3 incubated for 16 hrs; design: species or system Bacteria
[4] = Inhibition of his6-tagged SFH-1 (unknown origin) expressed in Escherichia coli BL21-DE3 incubated for 16 hrs; design: species or system Enzyme
[5] = Inhibition of his6-tagged VIM-2 (unknown origin) expressed in Escherichia coli BL21-DE3 incubated for 16 hrs
[6] = Stability in human plasma assessed as half life by HPLC analysis; assay type: ADME, cell-free
Enterobacter cloacae [7] = assay: Potentiation of meropenem induced antibacterial activity against Enterobacter cloacae 6.31 expressing NDM-1 assessed as meropenem MIC by CLSI based broth microdilution method; assay type: functional
L929 = assay: Cytotoxicity against mouse L929 cells assessed as reduction in cell viability at 100 microg/ml incubated for 24 hrs by MTT assay; assay type: toxicity, cell-based; settings: l929, 24 h
Klebsiella pneumoniae [8] = assay: Potentiation of meropenem induced antibacterial activity against Klebsiella pneumoniae 5639 expressing VIM-24 assessed as meropenem MIC by CLSI based broth microdilution method; assay type: functional
[9] = target: Metallo-beta-lactamase type 2 (Bacteria) (UniProt C7C422); assay: Inhibition of full length NDM-1 (unknown origin) expressed in Escherichia DH5alpha at 100 microg/ml measured at 1 to 5 hrs; settings: dose 100.0 µg/ml, time 1-5 hrs
Providencia rettgeri [10] = assay: Potentiation of meropenem induced antibacterial activity against Providencia rettgeri 1.27 expressing NDM-1 assessed as meropenem MIC by CLSI based broth microdilution method; assay type: functional
Klebsiella pneumoniae [11] = assay: Potentiation of meropenem induced antibacterial activity against Klebsiella pneumoniae LC82 expressing IMP-13 assessed as meropenem MIC by CLSI based broth microdilution method; assay type: functional
Klebsiella pneumoniae [12] = assay: Potentiation of meropenem induced antibacterial activity against Klebsiella pneumoniae 7.15 expressing NDM-1 assessed as meropenem MIC by CLSI based broth microdilution method; assay type: functional
Enterobacter cloacae [13] = assay: Potentiation of meropenem induced antibacterial activity against Enterobacter cloacae 1.28 expressing NDM-1 assessed as meropenem MIC by CLSI based broth microdilution method; assay type: functional
Klebsiella pneumoniae [14] = assay: Potentiation of meropenem induced antibacterial activity against Klebsiella pneumoniae 6907 expressing VIM-2 assessed as meropenem MIC by CLSI based broth microdilution method; assay type: functional
Klebsiella pneumoniae [15] = assay: Potentiation of meropenem induced antibacterial activity against Klebsiella pneumoniae 1.37 expressing NDM-1 assessed as meropenem MIC by CLSI based broth microdilution method; assay type: functional
Escherichia coli = assay: Potentiation of meropenem induced antibacterial activity against Escherichia coli 3.68 expressing NDM-1 assessed as meropenem MIC by CLSI based broth microdilution method; assay type: functional
Klebsiella pneumoniae [16] = assay: Potentiation of meropenem induced antibacterial activity against Klebsiella pneumoniae 1.41 expressing NDM-1 assessed as meropenem MIC by CLSI based broth microdilution method; assay type: functional
Klebsiella pneumoniae [17] = assay: Antibacterial activity against Klebsiella pneumoniae 5639 assessed as inhibition of bacterial growth by CLSI based broth microdilution method; assay type: functional
Enterobacter cloacae [18] = assay: Antibacterial activity against Enterobacter cloacae 1.28 assessed as inhibition of bacterial growth by CLSI based broth microdilution method; assay type: functional
Enterobacter cloacae [19] = assay: Antibacterial activity against Enterobacter cloacae 6.31 assessed as inhibition of bacterial growth by CLSI based broth microdilution method; assay type: functional
Klebsiella pneumoniae [20] = assay: Antibacterial activity against Klebsiella pneumoniae 7.15 assessed as inhibition of bacterial growth by CLSI based broth microdilution method; assay type: functional
Klebsiella pneumoniae [21] = assay: Antibacterial activity against Klebsiella pneumoniae 1.37 assessed as inhibition of bacterial growth by CLSI based broth microdilution method; assay type: functional
Klebsiella pneumoniae [22] = assay: Antibacterial activity against Klebsiella pneumoniae LC82 assessed as inhibition of bacterial growth by CLSI based broth microdilution method; assay type: functional
Klebsiella pneumoniae [23] = assay: Antibacterial activity against Klebsiella pneumoniae 1.41 assessed as inhibition of bacterial growth by CLSI based broth microdilution method; assay type: functional
Klebsiella pneumoniae [24] = assay: Antibacterial activity against Klebsiella pneumoniae 6907 assessed as inhibition of bacterial growth by CLSI based broth microdilution method; assay type: functional
Providencia rettgeri [25] = assay: Antibacterial activity against Providencia rettgeri 1.27 assessed as inhibition of bacterial growth by CLSI based broth microdilution method; assay type: functional

Sequence of Metallo-beta-lactamase type 2 (C7C422 whole entry): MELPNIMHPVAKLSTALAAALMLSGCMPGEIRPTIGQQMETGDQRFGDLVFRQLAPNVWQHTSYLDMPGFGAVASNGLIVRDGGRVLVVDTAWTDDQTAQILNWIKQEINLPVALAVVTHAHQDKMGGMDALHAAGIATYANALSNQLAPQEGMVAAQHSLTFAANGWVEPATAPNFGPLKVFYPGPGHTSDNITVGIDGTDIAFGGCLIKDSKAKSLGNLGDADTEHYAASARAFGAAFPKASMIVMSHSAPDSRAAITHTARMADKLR
Sequence of Metallo-beta-lactamase type 2 (Bacteria) (C7C422 whole entry): as above

Compound | IC50 [1] | IC50 ([2]; read-out: IC50) | IC50 ([3]; read-out: IC50) | IC50 ([4]; read-out: IC50) | IC50 ([5]; read-out: IC50) | IC50 [4] | further results
O=C(O)[C@@H]1CS[C@H]2CS[C@H](CS)N21 | 13 µM | 22 µM | 17.3 µM | 0.79 µM | 8.5 µM |  | t1/2 [6]: 0.383 h
CCOC(=O)[C@@H]1CS[C@H]2CS[C@H](CS)N21 | 2.7 µM | 6.9 µM | 0.26 µM | 5.5 µM | 0.17 µM |  | 
NCCOC(=O)[C@@H]1CS[C@H]2CS[C@H](CS)N21 | 53 µM | 58 µM |  |  |  | Not Active | 
CCOC(=O)[C@]12CS[C@H](CS)N1[C@H](C(=O)O)CS2 | 13 µM |  |  |  |  | Not Active | IC50 [2]: Not Active; IC50 [3]: Not Active; IC50 [5]: Not Active
O=C(NCc1ccccc1)[C@@H]1CS[C@H]2CS[C@H](CS)N21 | 7.7 µM | 8.9 µM |  |  |  | Not Active | 
Nc1nc(COC(=O)[C@@H]2CS[C@H]3CS[C@H](CS)N32)cs1 | 27 µM | 30 µM |  |  |  | Not Active | 
COc1ccc(CNC(=O)[C@@H]2CS[C@H]3CS[C@H](CS)N32)cc1 | 52 µM | 24 µM |  |  |  | Not Active | 
O=C(O)[C@@H]1CS[C@H]2CS[C@H](CCS)N21 | 3.1 µM | 12 µM |  |  |  | Not Active | IC50 [3]: Not Active; IC50 [5]: Not Active
O=C(Nc1ccccc1)[C@@H]1CS[C@H]2CS[C@H](CS)N21 | 20 µM | 15 µM |  |  |  | Not Active | 
CC(C)(C)OC(=O)NCCOC(=O)[C@@H]1CS[C@H]2CS[C@H](CS)N21 | 7.9 µM | 5.4 µM |  |  |  | Not Active | 
Nc1ccccc1NC(=O)[C@@H]1CS[C@H]2CS[C@H](CS)N21 | 29 µM | 32 µM |  |  |  | Not Active | 
SCC[C@H]1SC[C@@H]2SCCN21 (racemic) | 8.3 µM | 7.8 µM | 5.8 µM | 55 µM | 1.2 µM |  | 
SC[C@H]1SC[C@@H]2SCCN21 (racemic) | 1.2 µM | 4.9 µM | 1.09 µM | 7.5 µM | 0.88 µM |  | 
SC[C@H]1SC[C@@H]2Sc3ccccc3N21 (racemic) | 0.29 µM | 0.67 µM | 0.088 µM | 1.4 µM | 0.063 µM |  | MIC (Enterobacter cloacae [7]): 16 µg/mL; Activity (L929; dose 100 µg/ml): Non-Toxic; MIC (Klebsiella pneumoniae [8]): 0.125 µg/mL; inhibition [9]: Active; MIC (Providencia rettgeri [10]): 32 µg/mL; MIC (Klebsiella pneumoniae [11]): 0.125 µg/mL; MIC (Klebsiella pneumoniae [12]): 32 µg/mL; MIC (Enterobacter cloacae [13]): 8 µg/mL; MIC (Klebsiella pneumoniae [14]): 0.125 µg/mL; t1/2 [6]: 2.62 h; MIC (Klebsiella pneumoniae [15]): 16 µg/mL; MIC (Escherichia coli): 32 µg/mL; MIC (Klebsiella pneumoniae [16]): 8 µg/mL
SC[C@H]1SC[C@@H]2Nc3ccccc3N21 (relative stereo) |  | 0.62 µM | 1.01 µM | 3.7 µM | 1.4 µM |  | Activity (L929; at 100 µg/mL): 20%; t1/2 [6]: 2.45 h
C[C@@H](O)[C@H]1C(=O)N2C(C(=O)O)=C(S[C@@H]3CN[C@H](C(=O)N(C)C)C3)[C@H](C)[C@H]12 [MEROPENEM] |  |  |  |  |  |  | MIC (Klebsiella pneumoniae [17]): 4 µg/mL (≈ 10.4 µM); MIC (Enterobacter cloacae [18]): 128 µg/mL (≈ 334 µM); MIC (Enterobacter cloacae [19]): 54 µg/mL (≈ 141 µM); MIC (Klebsiella pneumoniae [20]): 128 µg/mL (≈ 334 µM); MIC (Klebsiella pneumoniae [21]): 64 µg/mL (≈ 167 µM); MIC (Klebsiella pneumoniae [22]): 1 µg/mL (≈ 2.61 µM); MIC (Klebsiella pneumoniae [23]): 128 µg/mL (≈ 334 µM); MIC (Klebsiella pneumoniae [24]): 8 µg/mL (≈ 20.9 µM); MIC (Providencia rettgeri [25]): 128 µg/mL (≈ 334 µM)
